In PMC2673211, “Nitric oxide activates ATP-sensitive potassium channels in mammalian sensory neurons: action by direct S-nitrosylation” (Molecular Pain, 2009):

How the values were obtained:
Type in all cases: biochemical
[1] = target: T1, SUR1-C717S/Kir6.2 channels (Rattus norvegicus, UniProt P70673+Q09429, C717S); assay: Inside-out patch recording of mutated channels expressed in COS7 cells
T1 construct: A full-length Kir cDNA and a full-length SUR cDNA were subcloned into the mammalian expression vector; expressed in transfected cells; host or cells: COS7 cells, pcDNA3.1(-) vectors, GFP cDNA co-transfected as a separate reporter
Description: (§1) KATP channel-deficient COS7 cells were plated at a density of 3 × 10^5/dish (35 mm in diameter) and cultured in Dulbecco's modified Eagle's medium supplemented with 10% fetal calf serum. Rat Kir6.2 (GenBank X97041) and rat SUR1 (GenBank X97279) cDNAs were used for expression study. A truncated form of Kir6.2 lacking the last 36 amino acids at the C-terminus was obtained by polymerase chain reaction amplification. Polymerase chain reaction products were cloned into the pCR3.1 vector by using the TA cloning system (Invitrogen Corp., Carlsbad, CA, USA) and then cloned into the pcDNA3.1 (-) vector (Invitrogen Corp.) for mammalian expression. Point mutation of cysteine at position 717 (C717), C806, C1378, C1446, and C1491 within SUR1 to serine (C717S, C806S, C1378S, C1446S, and C1491S) was performed by using the Site-Directed Mutagenesis system (Invitrogen Corp.). All cDNA products were sequenced by using the BigDye terminator cycle sequencing kit and an ABI PRISM 377 DNA sequencer (Applied Biosystems, Foster City, CA) to confirm the sequence. A full-length Kir cDNA and a full-length SUR cDNA were subcloned into the mammalian expression vector pcDNA3.1 (-). For electrophysiological recordings, either wild-type or mutated pcDNA3.1 (-) Kir6.2 alone (1 μg), or pcDNA3.1 (-) Kir6.2 (1 μg) plus pcDNA3.1 (-) SUR1 (3 μg) were transfected into COS7 cells with green fluorescent protein cDNA as a reporter gene by using lipofectamine and Opti-MEN 1 reagents (Life Technologies Inc., Rockville, MD) according to the manufacturer's instructions. After transfection, cells were cultured at 37°C with 95% air and 5% CO2 for 48–72 h before being subjected to electrophysiological recordings.
(§2) We recorded current passing through single channels in inside-out or cell-attached patch configurations. In cell-attached patches, both bath and pipette (extracellular) solutions were composed of the following: 140 mM KCl, 10 mM HEPES, 5.5 mM dextrose, and 1 mM EGTA. In inside-out patches, the bath (intracellular) solution contained 140 mM KCl, 1.2 mM MgCl2, 10 mM HEPES, 1.5 mM EGTA and 5.5 mM dextrose. The pipette (extracellular) solution was of the same composition as that used in cell-attached recordings. The pH of all solutions was adjusted to 7.4 with KOH. Osmolality was adjusted approximately to 300 mOsm/l by adding sucrose if necessary. We pulled patch micropipettes from borosilicate glass capillaries using a Flaming/Brown micropipette puller, model P-97 (Sutter, San Rafael, CA) and flame polished them with a microforge polisher (Narishige, Tokyo, Japan) prior to use. Their resistance ranged between 3 and 6 MΩ when filled with the internal solution, and placed into the recording solutions.
(§3) We recorded single channel currents at room temperature (20–25°C) using an Axon CNS Multiclamp 700B amplifier, digitized them using an analog-to-digital converter (Axon CNS DigiData 1440A; Axon Instruments, Foster, CA), and stored them into a PC. Sampling frequency of single-channel data was 5 KHz with a low-pass filter (1 KHz). We used pClamp version 10.2 software (Axon Instruments) for data acquisition and analysis. […] Channel open probability (Po) was determined from the ratios of the area under the peaks in the amplitude histograms fitted by a Gaussian distribution. We calculated channel activity as NPo (where N is the number of observed channels in the patch) from data samples of either 30 s (in inside-out recordings), or 60 s (in cell-attached recordings), in the steady state. […]

[2] = target: T2, wild-type SUR1/Kir6.2 channels (Rattus norvegicus, UniProt P70673+Q09429); assay: Inside-out patch recording of recombinant wild-type channels expressed in COS7 cells; conditions: SNAP 1 mM in the presence of 1 mM [ATP]i; n = 7
T2 construct: A full-length Kir cDNA and a full-length SUR cDNA were subcloned into the mammalian expression vector; expressed in transfected cells; host or cells: COS7 cells (KATP channel-deficient), pcDNA3.1(-) vectors, GFP cDNA co-transfected as a separate reporter
Description: as §1, §2, §3

Kir6.2ΔC36 channels = target: T3, Kir6.2ΔC36 channels (Rattus norvegicus, UniProt P70673); assay: Inside-out patch recording of truncated Kir6.2 channels expressed in COS7 cells; conditions: SNAP 1 mM in the presence of 1 mM [ATP]i; n = 6
T3 construct: A truncated form of Kir6.2 lacking the last 36 amino acids at the C-terminus; expressed in transfected cells; host or cells: COS7 cells, pcDNA3.1(-) Kir6.2 alone, GFP cDNA co-transfected as a separate reporter
T3 sequence (P70673 1-354 limits assumed): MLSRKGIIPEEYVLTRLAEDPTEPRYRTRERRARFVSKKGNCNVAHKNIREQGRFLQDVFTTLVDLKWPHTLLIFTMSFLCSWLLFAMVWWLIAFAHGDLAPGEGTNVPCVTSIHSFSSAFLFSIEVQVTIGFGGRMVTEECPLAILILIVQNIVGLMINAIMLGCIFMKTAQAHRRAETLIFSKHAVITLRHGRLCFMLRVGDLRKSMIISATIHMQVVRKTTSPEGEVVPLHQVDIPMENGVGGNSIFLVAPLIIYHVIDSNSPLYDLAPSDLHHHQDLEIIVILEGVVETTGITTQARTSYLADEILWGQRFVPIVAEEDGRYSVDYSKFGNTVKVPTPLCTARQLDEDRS
Description: KATP channel-deficient COS7 cells were plated at a density of 3 × 10^5/dish (35 mm in diameter) and cultured in Dulbecco's modified Eagle's medium supplemented with 10% fetal calf serum. Rat Kir6.2 (GenBank X97041) and rat SUR1 (GenBank X97279) cDNAs were used for expression study. A truncated form of Kir6.2 lacking the last 36 amino acids at the C-terminus was obtained by polymerase chain reaction amplification. Polymerase chain reaction products were cloned into the pCR3.1 vector by using the TA cloning system (Invitrogen Corp., Carlsbad, CA, USA) and then cloned into the pcDNA3.1 (-) vector (Invitrogen Corp.) for mammalian expression. […]
We recorded current passing through single channels in inside-out or cell-attached patch configurations. […]
as §3, with “PC.” for “PC. Sampling frequency of single-channel data was 5 KHz with a low-pass filter (1 KHz). We used pClamp version 10.2 software (Axon Instruments) for data acquisition and analysis.”

T1 sequence (Q09429 whole entry C717S): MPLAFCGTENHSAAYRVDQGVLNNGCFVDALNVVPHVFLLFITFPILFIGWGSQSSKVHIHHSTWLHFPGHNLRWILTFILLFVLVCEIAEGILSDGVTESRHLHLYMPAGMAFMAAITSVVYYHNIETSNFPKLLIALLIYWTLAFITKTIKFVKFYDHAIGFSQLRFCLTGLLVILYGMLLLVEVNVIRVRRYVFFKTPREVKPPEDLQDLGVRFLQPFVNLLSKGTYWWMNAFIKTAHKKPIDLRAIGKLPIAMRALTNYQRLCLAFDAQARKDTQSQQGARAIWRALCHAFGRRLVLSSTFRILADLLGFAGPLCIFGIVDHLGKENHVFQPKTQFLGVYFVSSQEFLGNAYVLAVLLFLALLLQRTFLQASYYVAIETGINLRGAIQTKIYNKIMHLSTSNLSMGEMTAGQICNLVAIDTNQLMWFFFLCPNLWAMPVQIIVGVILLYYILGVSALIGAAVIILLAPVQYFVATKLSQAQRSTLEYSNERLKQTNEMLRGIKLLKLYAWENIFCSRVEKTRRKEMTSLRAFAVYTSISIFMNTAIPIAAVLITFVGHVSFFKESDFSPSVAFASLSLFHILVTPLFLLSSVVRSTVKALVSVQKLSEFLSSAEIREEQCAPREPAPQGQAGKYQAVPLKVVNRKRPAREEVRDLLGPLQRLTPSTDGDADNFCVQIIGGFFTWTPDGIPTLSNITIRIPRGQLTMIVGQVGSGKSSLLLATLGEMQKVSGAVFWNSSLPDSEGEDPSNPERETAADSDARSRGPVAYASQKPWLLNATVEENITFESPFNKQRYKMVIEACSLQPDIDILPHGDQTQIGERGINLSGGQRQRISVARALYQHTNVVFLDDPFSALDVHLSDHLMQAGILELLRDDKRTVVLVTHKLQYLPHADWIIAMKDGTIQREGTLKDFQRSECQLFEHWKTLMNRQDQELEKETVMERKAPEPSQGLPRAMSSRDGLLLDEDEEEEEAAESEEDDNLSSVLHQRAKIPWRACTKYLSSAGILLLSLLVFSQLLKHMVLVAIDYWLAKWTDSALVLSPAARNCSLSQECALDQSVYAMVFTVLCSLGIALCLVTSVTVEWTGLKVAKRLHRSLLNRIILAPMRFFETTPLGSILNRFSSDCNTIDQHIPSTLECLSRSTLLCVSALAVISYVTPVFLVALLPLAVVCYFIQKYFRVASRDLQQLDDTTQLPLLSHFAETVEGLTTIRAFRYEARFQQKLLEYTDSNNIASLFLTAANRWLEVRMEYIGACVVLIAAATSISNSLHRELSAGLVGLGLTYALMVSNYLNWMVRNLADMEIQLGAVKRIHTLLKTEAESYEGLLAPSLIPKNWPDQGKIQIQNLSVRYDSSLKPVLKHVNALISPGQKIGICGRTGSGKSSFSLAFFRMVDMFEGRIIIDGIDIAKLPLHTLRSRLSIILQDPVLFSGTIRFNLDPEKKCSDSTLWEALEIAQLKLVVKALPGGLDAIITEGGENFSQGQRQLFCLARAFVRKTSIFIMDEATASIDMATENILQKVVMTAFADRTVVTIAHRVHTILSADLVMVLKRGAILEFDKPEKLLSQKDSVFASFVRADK
T1 sequence (P70673 whole entry): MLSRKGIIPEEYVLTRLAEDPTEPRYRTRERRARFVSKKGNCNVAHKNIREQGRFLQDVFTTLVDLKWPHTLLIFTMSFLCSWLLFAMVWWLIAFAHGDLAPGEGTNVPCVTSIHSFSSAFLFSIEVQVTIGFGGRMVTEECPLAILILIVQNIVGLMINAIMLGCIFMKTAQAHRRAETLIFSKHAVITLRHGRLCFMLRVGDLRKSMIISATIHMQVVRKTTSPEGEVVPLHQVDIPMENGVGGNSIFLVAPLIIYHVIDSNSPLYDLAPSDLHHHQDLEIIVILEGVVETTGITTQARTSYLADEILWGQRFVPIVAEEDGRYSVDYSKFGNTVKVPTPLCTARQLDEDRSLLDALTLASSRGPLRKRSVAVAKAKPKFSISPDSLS
T2 sequence (Q09429 whole entry): as the sequence (Q09429 whole entry C717S) above, with S717C counted along it
T2 sequence (P70673 whole entry): as the sequence (P70673 whole entry) above

In the case of S-nitroso-N-acetylpenicillamine [SNAP], the “effect on recombinant channel activity” value ([1]; SNAP 1 mM in the presence of 1 mM [ATP]i) is reported as “significantly activated”, the “potency in activating the channel compared with the wild-type SUR1/Kir6.2 channel” value ([1]; SNAP, n = 8, p < 0.02 vs. wild type) is reported as “significantly less potent” and the “effect on recombinant channel activity” value [2] is reported as “significantly activated”. For the same substance, the “effect on Kir6.2ΔC36 currents” value (Kir6.2ΔC36 channels) was “fails to activate”.
